Experimental data reported in patent publication US20230416329A1, “A PEPTIDE WITH DISULFIDE BONDS AND INHIBITORY ACTIVITY AGAINST SERINE PROTEASES, DERIVED HYBRID PEPTIDES THEREOF, AND USES THEREOF” (INSTITUTE OF MATERIA MEDICA , CHINESE ACADEMY OF MEDICAL …, priority 2020, published 2023).
One block for each molecule: values may come before it. Bridge positions count the residues as written; N and C are the ends. Ends that are not written are not given here.

How the values were obtained:
elastase = elastase (Sus scrofa, UniProt P00772); test: in vitro; details: isolated enzyme elastase
Sequence of elastase (P00772 27-266): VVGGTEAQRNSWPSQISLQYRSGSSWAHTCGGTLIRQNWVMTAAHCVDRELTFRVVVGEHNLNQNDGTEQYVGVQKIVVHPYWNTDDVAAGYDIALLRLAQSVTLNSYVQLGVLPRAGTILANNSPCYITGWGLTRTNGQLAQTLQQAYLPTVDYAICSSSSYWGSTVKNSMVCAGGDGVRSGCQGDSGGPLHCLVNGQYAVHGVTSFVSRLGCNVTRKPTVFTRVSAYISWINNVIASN
Procedure, shortened: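 Peptides and elastase (0.5 μg/μL solution) each pre-warmed 5 min at 37° C, then mixed; aliquots taken at 1.5 to 60.0 min and quenched with 10% TFA. Remaining intact peptide quantified as RP-HPLC peak area.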

normal ICR mice [1] = test: In vivo hypoglycemic activity of GLP-1 analogues, subcutaneous administration, oral glucose loading; parameters: species or system mouse; details: subcutaneous 1 μmol/kg, mean
Protocol: FIG. 21. In vivo hypoglycemic activities of GLP-1 analogues by subcutaneous administration. Normal ICR mice were subcutaneously injected with GLP-1 and its analogues or corresponding volumes of saline (1.0 μmol/kg, n=10). After 30 min, glucose solution (2 g/kg) was administered by gavage, and blood was collected from the tail tip at 30, 60, and 120 min after glucose administration. Blood glucose was measured using glucose oxidase method, and blood glucose values and area under the blood glucose curve (AUC) were calculated at each timepoint.
The day before the experiment, all of the animals were fasted for 15-16 hours with water ad libitum. On the day of the experiment, the animals were randomly divided according to body weight (n=10). Firstly, the blood was collected from the tail tip at 0 hour, and then the animals were administered subcutaneously with GLP-1 analog (SEQ ID NOs: 194-201, 1 μmol/kg) or saline. After 30 minutes, the animals were administered by gavage with glucose solution (2 g/kg), and the blood was collected from the tail tip at 30, 60, and 120 minutes later. Blood glucose was measured using glucose oxidase method. The blood glucose and area under the blood glucose-time curve (AUC) were calculated.

DPP-IV = DPP-IV (Homo sapiens, UniProt P27487); test: Tolerance of GLP-1 and its analogues to DPP-IV (RP-HPLC remaining peak area); assay type: in vitro ADME; details: peptide 25 μM, DPP-IV 0.5 ng/μL, 37° C.
Sequence of DPP-IV (P27487 whole entry, species assumed): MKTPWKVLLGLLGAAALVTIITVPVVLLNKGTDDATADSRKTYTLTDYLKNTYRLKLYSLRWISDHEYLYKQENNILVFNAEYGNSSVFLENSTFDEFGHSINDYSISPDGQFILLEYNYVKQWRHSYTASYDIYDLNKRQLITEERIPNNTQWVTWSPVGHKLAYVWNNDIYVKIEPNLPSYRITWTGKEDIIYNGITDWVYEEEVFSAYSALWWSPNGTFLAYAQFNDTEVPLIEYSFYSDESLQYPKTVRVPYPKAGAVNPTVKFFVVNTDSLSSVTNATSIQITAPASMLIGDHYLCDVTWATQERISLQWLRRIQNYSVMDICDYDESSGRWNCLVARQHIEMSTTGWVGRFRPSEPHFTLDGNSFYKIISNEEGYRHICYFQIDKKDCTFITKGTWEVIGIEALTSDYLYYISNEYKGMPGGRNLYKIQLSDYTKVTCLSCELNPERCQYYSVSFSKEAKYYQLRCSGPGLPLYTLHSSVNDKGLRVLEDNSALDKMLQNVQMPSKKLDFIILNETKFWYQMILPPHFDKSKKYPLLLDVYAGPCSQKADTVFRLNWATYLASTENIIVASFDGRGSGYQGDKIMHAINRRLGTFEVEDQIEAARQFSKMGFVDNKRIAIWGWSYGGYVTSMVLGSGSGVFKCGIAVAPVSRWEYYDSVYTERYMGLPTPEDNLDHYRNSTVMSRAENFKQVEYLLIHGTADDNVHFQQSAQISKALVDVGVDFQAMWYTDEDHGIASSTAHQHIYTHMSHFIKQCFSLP
Protocol: Mix by centrifugation at 8000 rpm for 30 seconds.
(2) Arrange a certain volume of 0.005 μg/μL DPP-IV solution in another sterile EP.

[2] = Stability of GLP-1 and its analogues in human serum; details: 25% (v/v) human serum
normal ICR mice [3] = test: In vivo hypoglycemic activity of GLP-1 analogues, duodenal administration, oral glucose loading; parameters: species or system mouse
Protocol: FIG. 22. In vivo hypoglycemic activities of GLP-1 analogues by duodenal administration. Normal ICR mice were anesthetized with inhalation of ether, and the duodenum was surgically removed and injected with GLP-1 and its analogues or a corresponding volume of saline ([…], n=9-11), and finally the incision was sewed. After 15 min, glucose solution (2 g/kg) was administered by gavage, and blood was collected from the tail tips at 15, 30, and 60 min after glucose administration. Blood glucose was measured using glucose oxidase method, and blood glucose values and area under the blood glucose curve (AUC) were calculated at each timepoint.
Drug delivery technology can use enteric coating technology to achieve oral administration targeting the small intestine. In order to test the feasibility of direct small intestinal administration of GLP-1, the present invention designs duodenal administration. The experimental process is as follows: The day before the experiment, all of the animals were fasted for 15-16 hours with water ad libitum. On the day of the experiment, the animals were randomly divided according to body weight (n=9-11 or 14-15 for combined administration). Firstly, the blood was collected from the tail tip at 0 hours, and then the animals were anesthetized by inhaling ether. A small incision was made near the underside of the stomach using surgical scissors, and the duodenum was carefully removed and administered with GLP-1 analogs (SEQ ID NOs: 194-209, 10 μmol/kg) or saline. Finally, the wound was sutured. After 15 minutes, the glucose solution (2 g/kg) was administered by gavage, and the blood were collected from the tail tips at 15, 30, and 60 minutes after glucose administration. Blood glucose was measured using the glucose oxidase method. The blood glucose at each moment and area under the blood glucose-time curve (AUC) were calculated.
AUC mg×h/dL)=(BG0+BG15)×15/60+(BG15+BG30)×15/60+(BG30+BG60)×30/60. BG0, BG15, BG30, and BG60 represent blood glucose levels at 0, 15, 30, and 60 minutes after glucose loading, respectively.

[4] = biological target: T1, interaction of PCSK9-LDLR (Homo sapiens, UniProt Q8NBP7); test: PCSK9-LDLR in vitro binding assay (inhibitory rate); details: in vitro
T1 construct: purchased MBL Company, Beijing, China CY-8150
Protocol: Polypeptide PCSK9_1-14 (SEQ ID NOs: 210-223) is dissolved in pure water or DMSO. 85 μL reaction buffer, 5 μL 1 mM polypeptide sample and 10 μL 750 ng/mL PCSK9 protein was pre-incubated at room temperature for 20 minutes before being added to a 96 well plate. The OD450/540 nm value was measured according to the instructions of the PCSK9-LDLR in Vitro Binding Assay Kit (CY-8150, MBL Company, Beijing, China). Solvent control: replace polypeptide with 5 μL solvent. In 100 μL reaction system, the final concentration of the polypeptide and PCSK9 is 50 μM and 75 ng/mL, respectively.
Inhibition rate of polypeptide (%)=(OD450/540 nm(solvent control)−OD450/540 nm (sample))/OD450/540 nm(solvent control)×100

[5] = test system: P407-induced hyperlipidemia mice; test: Subcutaneous injection of PCSK9 inhibitory peptide, serum total cholesterol in P407-induced hyperlipidemia mice; assay type: in vivo, mouse; details: for serum total cholesterol (TC) level after subcutaneous injection (in words): 2 μmol/kg single s.c., P407-induced hyperlipidemia mice
Protocol: The experimental peptide sample was prepared using PEG400 with a final concentration of […], and the final concentration of PEG400 is 20% (w/v). Normal ICR mice were fasted overnight with water ad libitum. The next day, all of the mice were randomly divided into model control group (Con) and polypeptide administration group (2 μmol/kg) according to body weight. Then, all of the mice were intraperitoneally injected with P407 (500 mg/kg) and fed with feed 2 hours later. Six mice were taken as a normal control group (Nor). After 24 hours, the mice in Con were subcutaneously injected with saline containing 20% PEG400, and the mice in the treatment group were given peptides. Then, the blood was taken at different time points after administration to determine the serum total cholesterol (TC) level. In consideration of the complexity of factors affecting serum LDL-C levels, especially the differences between single and long-term administration, the in vivo activity of PCSK9 inhibitory peptide is mainly observed for changes in serum TC levels.

[6] = test system: P407 induced hyperlipidemia mice; test: Duodenal injection of PCSK9 inhibitory peptide, serum total cholesterol in P407 induced hyperlipidemia mice; assay type: in vivo, mouse
Protocol: The experimental polypeptide sample was prepared using PEG400 with a final concentration of 20 μmol/kg and the final concentration of PEG400 is 50% (w/v). The control group was saline containing PEG400 (50%).
Normal ICR mice were fasted overnight with water ad libitum. The next day, all of the mice were intraperitoneally injected with poloxamer 407 (P407, 500 mg/kg) to establish a model of lipid metabolism disorder. Six mice were intraperitoneally injected with saline as a normal control (Nor). Normal feeding resumed after 2 hours. The model animals were randomly divided into model group (Con) and polypeptide groups according to body weight, and the blood was collected from tail tip (0 min). Then, the animals were anesthetized with ether for duodenal exposure surgery. At the same time, a sample or saline containing PEG400 was injected through the duodenum. Finally, the wound was sutured. The blood was collected from tail tip at 15, 30, 60, and 90 minutes after administration to determine the serum total cholesterol level.

[7] = pH 8, Remaining peak area (%)/elastase
[8] = duodenal 10 μmol/kg, normal ICR mice, after oral glucose loading

Remaining peak area (%)/elastase (elastase; 1 h, 60 μM, pH 8): 17.8 ± 2.0%
remaining at 0.025 h, 60 μM (elastase; [7]): 90.2 ± 3%
remaining at 0.05 h, 60 μM (elastase; [7]): 86 ± 1.7%
remaining at 0.075 h, 60 μM (elastase; [7]): 79.7 ± 3.5%
remaining at 0.1 h, 60 μM (elastase; [7]): 79.1 ± 2.2%
remaining at 0.15 h, 60 μM (elastase; [7]): 74.5 ± 2.2%
remaining at 0.25 h, 60 μM (elastase; [7]): 63.3 ± 0.7%
remaining at 0.5 h, 60 μM (elastase; [7]): 49.4 ± 0.9%
remaining at 1 h, 60 μM (elastase; [7]): ~20%
Remaining peak area (%)/human serum ([2]; 0.0 h, peptide 0.03 mM, 37° C.): 100.0 ± 0.0%
remaining at 0.5 h, 0.03 mM ([2]; human, pH 7): 94.6 ± 5.3%
remaining at 2 h, 0.03 mM ([2]; human, pH 7): 69.3 ± 4%
remaining at 4 h, 0.03 mM ([2]; human, pH 7): 43.4 ± 1.7%
remaining at 8 h, 0.03 mM ([2]; human, pH 7): 5.7 ± 0.1%
remaining at 12 h, 0.03 mM ([2]; human, pH 7): 2.2 ± 0.1%
Molecule: CC[C@H](C)[C@H](NC(=O)[C@H](Cc1ccccc1)NC(=O)[C@H](CCC(=O)O)NC(=O)[C@H](CCCCN)NC(=O)[C@H](C)NC(=O)[C@H](C)NC(=O)[C@H](CCC(N)=O)NC(=O)CNC(=O)[C@H](CCC(=O)O)NC(=O)[C@H](CC(C)C)NC(=O)[C@H](Cc1ccc(O)cc1)NC(=O)[C@H](CO)NC(=O)[C@H](CO)NC(=O)[C@@H](NC(=O)[C@H](CC(=O)O)NC(=O)[C@H](CO)NC(=O)[C@@H](NC(=O)[C@H](Cc1ccccc1)NC(=O)[C@@H](NC(=O)CNC(=O)[C@H](CCC(=O)O)NC(=O)[C@H](C)NC(=O)[C@H](Cc1c[nH]cn1)NC(=O)CNC(=O)CNC(=O)[C@@H](NC(=O)[C@@H]1CCCN1C(=O)[C@@H](NC(=O)CNC(=O)CNC(=O)[C@H](CCC(N)=O)NC(=O)[C@@H]1CSSC[C@H](NC(=O)[C@@H](N)CC(C)C)C(=O)N[C@@H]([C@@H](C)O)C(=O)N[C@@H](C)C(=O)N[C@@H](CO)C(=O)N[C@@H]([C@@H](C)CC)C(=O)N2CCC[C@H]2C(=O)N2CCC[C@H]2C(=O)N[C@@H]([C@@H](C)CC)C(=O)N1)[C@@H](C)CC)[C@@H](C)CC)[C@@H](C)O)[C@@H](C)O)C(C)C)C(=O)N[C@@H](C)C(=O)N[C@@H](Cc1c[nH]c2ccccc12)C(=O)N[C@@H](CC(C)C)C(=O)N[C@H](C(=O)N[C@@H](CCCCN)C(=O)NCC(=O)N[C@@H](CCCNC(=N)N)C(=O)NCC(=O)NCC(=O)N[C@@H](CCCCN)C(=O)O)C(C)C [EC12-D-GLP-1]
AUC (blood glucose-time curve) (normal ICR mice [1]; 0-120 min): 159.1 mg·h/dL
Blood glucose 0 min (normal ICR mice [1]; 0 min, oral glucose loading 2 g/kg): 63.3 mg/dL
Blood glucose 30 min (normal ICR mice [1]; 30 min after oral glucose loading): 103.3 mg/dL
Blood glucose 60 min (normal ICR mice [1]; 60 min after oral glucose loading): 77.2 mg/dL
Blood glucose 120 min (normal ICR mice [1]; 120 min after oral glucose loading): 67.6 mg/dL
Remaining peak area (%)/DPP-IV (DPP-IV; 0.0 h): 100.0 ± 0.0%
remaining at 0.5 h, 25 μM (DPP-IV; isolated DPP-IV enzyme in buffer, pH 8, 0.5 h): 79.1 ± 2.6%
remaining at 2 h, 25 μM (DPP-IV; isolated DPP-IV enzyme in buffer, pH 8, 2.0 h): 78.5 ± 1.1%
remaining at 4 h, 25 μM (DPP-IV; isolated DPP-IV enzyme in buffer, pH 8, 4.0 h): 81.7 ± 0.8%
remaining at 8 h, 25 μM (DPP-IV; isolated DPP-IV enzyme in buffer, pH 8, 8.0 h): 79.2 ± 2.6%
remaining at 12 h, 25 μM (DPP-IV; isolated DPP-IV enzyme in buffer, pH 8, 12.0 h): 80.7 ± 0.3%
reduction of blood glucose at 15 minutes compared with Nor (normal ICR mice [3]; [8]): 11.9%
reduction of blood glucose at 30 minutes compared with Nor (normal ICR mice [3]; [8]): 19.9%
reduction of blood glucose at 60 minutes compared with Nor (normal ICR mice [3]; [8]): 17.4%
AUC (blood glucose-time curve) (normal ICR mice [3]; duodenal injection 10 μmol/kg, 0-60 min, mean): 123.6 mg·h/dL
Blood glucose 0 min (normal ICR mice [3]; duodenal injection 10 μmol/kg, 0 min, mean): 75.6 mg/dL
Blood glucose 15 min (normal ICR mice [3]; duodenal injection 10 μmol/kg, 15 min after oral glucose loading, mean): 120.8 mg/dL
Blood glucose 30 min (normal ICR mice [3]; duodenal injection 10 μmol/kg, 30 min, mean): 129.8 mg/dL
Blood glucose 60 min (normal ICR mice [3]; duodenal injection 10 μmol/kg, 60 min, mean): 141.1 mg/dL

inhibitory activity on the interaction between PCSK9 and LDLR (in words) ([4]; listed as SEQ ID NO: 231): good inhibitory effects in vitro
Molecule: Trp-Glu-Glu-Tyr-Leu-Asp-Tyr-Val-Gly-Ile-Cys-Thr-Ala-Ser-Ile-Pro-Pro-Ile-Cys-Gln-Gly-Thr-Val-Phe-Thr-Ser (WEEYLDYVGICTASIPPICQGTVFTS; disulfide 11-19 (inferred)) [PCSK9_6EC]
inhibitory activity on the interaction between PCSK9 and LDLR (in words) [4]: good inhibitory activity on the interaction between PCSK9 and LDLR
serum total cholesterol (TC) level after subcutaneous injection (in words) [5]: reduced serum TC level
serum total cholesterol (TC) level after subcutaneous injection (in words) ([5]; listed as SEQ ID NO: 231): excellent lowering lipid (total cholesterol) activities in vivo
TC 15 min ([5]; serum, subcutaneous 2 μmol/kg, 15 min after administration, mean ± sd): 243.8 ± 61.0 mg/dL
TC 30 min ([5]; serum, subcutaneous 2 μmol/kg, 30 min after administration, mean ± sd): 236.9 ± 57.4 mg/dL
TC 60 min ([5]; serum, subcutaneous 2 μmol/kg, 60 min after administration, mean ± sd): 234.5 ± 63.8 mg/dL
TC 90 min ([5]; serum, subcutaneous 2 μmol/kg, 90 min after administration, mean ± sd): 227.4 ± 58.6 mg/dL
hypolipidemic activity after duodenal administration (in words) ([6]; 20 μmol/kg, P407 induced hyperlipidemia mice): did not show hypolipidemic activity
TC 15 min ([6]; serum, duodenal injection 20 μmol/kg, 15 min, mean ± sd): 316.6 ± 34.3 mg/dL
TC 30 min ([6]; serum, duodenal injection 20 μmol/kg, 30 min, mean ± sd): 293.1 ± 67.3 mg/dL
TC 60 min ([6]; serum, duodenal injection 20 μmol/kg, 60 min, mean ± sd): 323.9 ± 51.5 mg/dL
TC 90 min ([6]; serum, duodenal injection 20 μmol/kg, 90 min, mean ± sd): 317.7 ± 44.3 mg/dL
